Source: patent US11878992B2, “Crystallization of steviol glycosides” (DSM IP Assets B.V., priority 2016, dated 2024)

Experiments:
[1] = suitable for use in carbonated beverages and many other foods; cited from earlier work
[2] = spontaneous crystallization from nanofiltration retentate; format: physicochemical; settings: aqueous nanofiltration retentate of fermentation broth
Description: The fermentation broth after laboratory scale fermentations was processed as follows: • centrifugation 30 min at 4000×g; • pH in the supernatant was adjusted to 3.5 and supernatant was heated 30 min at 70° C.; • the heated supernatant was clarified by centrifugation; • the clarified supernatant was ultrafiltrated through a membrane with 10 kDa cut-off; and • the permeate after ultrafiltration was nanofiltrated using a membrane with 150-300 Da cut-off.
Finally, 14.5 g of dried crystals were isolated out of 0.871 kg NF retentate.

[3] = solubility in washing liquid (95% ethanol); format: physicochemical; settings: in 95% ethanol (washing liquid)
Description: The suspension of 2.5 g crystals in 100 ml water was heated to 75° C. for 10 minutes to dissolve the crystals. The solution was cooled to 20° C. at 10° C./h and incubated at this temperature overnight. The crystals formed were filtered by vacuum and washed with two cake volumes of 95% ethanol
The choice of washing liquid was because of the low rebaudioside M solubility in it. The crystals were dried at 60° C. under vacuum overnight. […] The crystals contained >95% Reb-M as determined by LC-UV and the level of all KAG was below the limit of detection of LC-MS.

Type II diabetics = settings: studies suggest; cited from earlier work
[4] = tested on: mildly hypertensive patients; settings: studies suggest; cited from earlier work
[5] = relative to sucrose; cited from earlier work

C=C1C[C@@]23CC[C@H]4[C@@](C)(CCC[C@@]4(C)C(=O)O[C@@H]4O[C@H](CO)[C@@H](O)[C@H](O)[C@H]4O)[C@@H]2CC[C@]1(O[C@@H]1O[C@H](CO)[C@@H](O)[C@H](O[C@@H]2O[C@H](CO)[C@@H](O)[C@H](O)[C@H]2O)[C@H]1O[C@@H]1O[C@H](CO)[C@@H](O)[C@H](O)[C@H]1O)C3 [rebaudioside A]
heat and pH stability [1]: heat and pH stable

C=C1C[C@@]23CC[C@H]4[C@@](C)(CCC[C@@]4(C)C(=O)O[C@@H]4O[C@H](CO)[C@@H](O)[C@H](O[C@@H]5O[C@H](CO)[C@@H](O)[C@H](O)[C@H]5O)[C@H]4O[C@@H]4O[C@H](CO)[C@@H](O)[C@H](O)[C@H]4O)[C@@H]2CC[C@]1(O[C@@H]1O[C@H](CO)[C@@H](O)[C@H](O[C@@H]2O[C@H](CO)[C@@H](O)[C@H](O)[C@H]2O)[C@H]1O[C@@H]1O[C@H](CO)[C@@H](O)[C@H](O)[C@H]1O)C3 [rebaudioside M]
concentration in the retentate of nanofiltration at which crystallization begins spontaneously [2]: exceeded 30 g/I | solubility [3]: low

C=C1C[C@@]23CC[C@H]4[C@@](C)(CCC[C@@]4(C)C(=O)O[C@@H]4O[C@H](CO)[C@@H](O)[C@H](O)[C@H]4O)[C@@H]2CC[C@]1(O[C@@H]1O[C@H](CO)[C@@H](O)[C@H](O)[C@H]1O[C@@H]1O[C@H](CO)[C@@H](O)[C@H](O)[C@H]1O)C3 [Stevioside]
effect on blood glucose levels (Type II diabetics): can reduce blood glucose levels | heat and pH stability [1]: heat and pH stable | effect on blood pressure [4]: can reduce blood pressure

C=C1C[C@@]23CC[C@H]4[C@@](C)(CCC[C@@]4(C)C(=O)O[C@@H]4O[C@H](CO)[C@@H](O)[C@H](O)[C@H]4O[C@@H]4O[C@H](CO)[C@@H](O)[C@H](O)[C@H]4O)[C@@H]2CC[C@]1(O[C@@H]1O[C@H](CO)[C@@H](O)[C@H](O[C@@H]2O[C@H](CO)[C@@H](O)[C@H](O)[C@H]2O)[C@H]1O[C@@H]1O[C@H](CO)[C@@H](O)[C@H](O)[C@H]1O)C3 [rebaudioside D]
times sweeter than sucrose [5]: about 200 times
